Measurements reported in US11932658B2 (BRISTOL-MYERS SQUIBB COMPANY, priority 2016, dated 2024).

These molecules were tested against T1, PAR4 (Homo sapiens, UniProt Q96RI0) (assay: PAR4 FLIPR assay (antagonism of agonist peptide-induced calcium mobilization)).
T1 construct: expressed in transfected cells; host or cells: HEK293 PAR4 Clone 1.2A (BMS Arctic ID 383940)
T1 sequence (Q96RI0 18-385): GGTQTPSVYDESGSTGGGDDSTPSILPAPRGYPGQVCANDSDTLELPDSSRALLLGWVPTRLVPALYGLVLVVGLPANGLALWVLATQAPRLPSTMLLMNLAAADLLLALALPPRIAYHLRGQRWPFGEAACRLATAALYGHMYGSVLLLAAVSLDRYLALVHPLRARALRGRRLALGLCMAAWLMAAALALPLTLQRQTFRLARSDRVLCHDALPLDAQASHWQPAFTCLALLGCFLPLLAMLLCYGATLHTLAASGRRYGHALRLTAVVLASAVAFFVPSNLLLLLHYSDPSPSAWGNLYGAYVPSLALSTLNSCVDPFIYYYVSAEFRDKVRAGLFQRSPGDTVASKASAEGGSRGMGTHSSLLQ
Format: cell-based
Procedure, shortened: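 Antagonism was taken as block of calcium mobilization evoked by the agonist peptide H-Ala-Phe(4-F)-Pro-Gly-Trp-Leu-Val-Lys-Asn-[…]-NH2, added after 30 min room-temperature compound preincubation in dye-loaded PAR4-transfected HEK293 cells (endogenous PAR1). Fluorescence was read on FDSS, with compound addition alone used as the agonist counter-screen; values come from 11-point concentration-response curves.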

SMILES	IC50 [nM]
COc1cnc2c(-c3nc4c(C)cc5c(c4s3)OCC(COC(=O)Nc3cnc(C)nc3)O5)cc(C)cc2n1 (stereo not drawn) [Example 79, (2-(2-methoxy-7-methylquinoxalin-5-yl)-4-methyl-7,8-dihydro-[1,4]dioxino[2′,3′:3,4]benzo[1,2-d]thiazol-7-yl)methyl (2-methylpyrimidin-5-yl)carbamate]	29
COc1cnc2c(-c3nc4c(C(F)F)cc5c(c4s3)OC[C@H](COC(=O)Nc3ccc(C)nc3)O5)cc(C)cc2n1 [Example 80, (R)-(4-(difluoromethyl)-2-(2-methoxy-7-methylquinoxalin-5-yl)-7,8-dihydro-[1,4]dioxino[2′,3′:3,4]benzo[1,2-d]thiazol-7-yl)methyl (6-methylpyridin-3-yl)carbamate]	33
COc1ccc(NC(=O)OC[C@H]2COc3c(cc(C(F)F)c4nc(-c5cc(C)cc6nc(OC)cnc56)sc34)O2)cn1 [Example 81, (R)-(4-(difluoromethyl)-2-(2-methoxy-7-methylquinoxalin-5-yl)-7,8-dihydro-[1,4]dioxino[2′,3′:3,4]benzo[1,2-d]thiazol-7-yl)methyl (6-methoxypyridin-3-yl)carbamate]	39
COc1cnc2c(-c3nc4c(C)cc5c(c4s3)OCC(COC(=O)Nc3ccc4ocnc4c3)O5)cc(C)cc2n1 (stereo not drawn) [Example 82, (2-(2-methoxy-7-methylquinoxalin-5-yl)-4-methyl-7,8-dihydro-[1,4]dioxino[2′,3′:3,4]benzo[1,2-d]thiazol-7-yl)methyl benzo[d]oxazol-5-ylcarbamate]	55
COc1cnc2c(-c3nc4c(F)cc5c(c4s3)OC[C@H](COC(=O)Nc3cccnc3)O5)cc(CO)cc2n1 [Example 83, (R)-(4-fluoro-2-(7-(hydroxymethyl)-2-methoxyquinoxalin-5-yl)-7,8-dihydro-[1,4]dioxino [2′,3′:3,4]benzo[1,2-d]thiazol-7-yl)methyl pyridin-3-ylcarbamate]	29
COc1cnc2c(-c3nc4c(C)cc5c(c4s3)OC[C@H](COC(=O)Nc3ccnc(C)c3)O5)cc(C(F)F)cc2n1 [Example 84, (R)-(2-(7-(difluoromethyl)-2-methoxyquinoxalin-5-yl)-4-methyl-7,8-dihydro-[1,4]dioxino[2′,3′:3,4]benzo[1,2-d]thiazol-7-yl)methyl (2-methylpyridin-4-yl)carbamate]	33
COc1cnc2c(-c3nc4c(F)cc5c(c4s3)OC[C@H](COC(=O)Nc3ccnc(C)c3)O5)cc(CO)cc2n1 [Example 85, (R)-(4-fluoro-2-(7-(hydroxymethyl)-2-methoxyquinoxalin-5-yl)-7,8-dihydro-[1,4]dioxino [2′,3′:3,4]benzo[1,2-d]thiazol-7-yl)methyl (2-methylpyridin-4-yl)carbamate]	15
C=Cc1cc(-c2nc3c(C)cc4c(c3s2)OCC(COC(=O)Nc2ccc(OC)nc2)O4)c2ncc(OC)nc2c1 (stereo not drawn) [Example 86, (2-(2-methoxy-7-vinylquinoxalin-5-yl)-4-methyl-7,8-dihydro-[1,4]dioxino[2′,3′:3,4]benzo [1,2-d]thiazol-7-yl)methyl (6-methoxypyridin-3-yl)carbamate]	6.3
COc1ccc(NC(=O)OCC2COc3c(cc(C)c4nc(-c5cc(CO)cc6nc(OC)cnc56)sc34)O2)cn1 (stereo not drawn) [Example 87, (2-(7-(hydroxymethyl)-2-methoxyquinoxalin-5-yl)-4-methyl-7,8-dihydro-[1,4]dioxino[2′,3′:3,4]benzo[1,2-d]thiazol-7-yl)methyl (6-methoxypyridin-3-yl)carbamate]	2
COc1ccc(NC(=O)OCC2COc3c(cc(C)c4nc(-c5cc(C(C)O)cc6nc(OC)cnc56)sc34)O2)cn1 (stereo not drawn) [Example 88, (2-(7-(1-hydroxyethyl)-2-methoxyquinoxalin-5-yl)-4-methyl-7,8-dihydro-[1,4]dioxino[2′,3′:3,4]benzo[1,2-d]thiazol-7-yl)methyl (6-methoxypyridin-3-yl)carbamate]	4.4
C=Cc1cc(-c2nc3c(C)cc4c(c3s2)OCC(COC(=O)Nc2cccnc2)O4)c2ncc(OC)nc2c1 (stereo not drawn) [Example 89, (2-(2-methoxy-7-vinylquinoxalin-5-yl)-4-methyl-7,8-dihydro-[1,4]dioxino[2′,3′:3,4]benzo [1,2-d]thiazol-7-yl)methyl pyridin-3-ylcarbamate]	20
COc1cnc2c(-c3nc4c(C)cc5c(c4s3)OCC(COC(=O)Nc3cccnc3)O5)cc(CO)cc2n1 (stereo not drawn) [Example 90, (2-(7-(hydroxymethyl)-2-methoxyquinoxalin-5-yl)-4-methyl-7,8-dihydro-[1,4]dioxino[2′,3′:3,4]benzo[1,2-d]thiazol-7-yl)methyl pyridin-3-ylcarbamate]	2.7
COc1cnc2c(-c3nc4c(C)cc5c(c4s3)OC[C@H](COC(=O)Nc3ccc(C)nc3)O5)cc(C#N)cc2n1 [Example 91, (R)-(2-(7-cyano-2-methoxyquinoxalin-5-yl)-4-methyl-7,8-dihydro-[1,4]dioxino[2′,3′:3,4]benzo[1,2-d]thiazol-7-yl)methyl (6-methylpyridin-3-yl)carbamate]	1.1
COc1cnc2c(-c3nc4c(C)cc5c(c4s3)OC[C@H](COC(=O)Nc3ccnc(C)c3)O5)cc(C#N)cc2n1 [Example 92, (R)-(2-(7-cyano-2-methoxyquinoxalin-5-yl)-4-methyl-7,8-dihydro-[1,4]dioxino[2′,3′:3,4]benzo[1,2-d]thiazol-7-yl)methyl (2-methylpyridin-4-yl)carbamate]	1.4
COc1cnc2c(-c3nc4c(C)cc5c(c4s3)OC[C@H](COC(=O)Nc3cccnc3)O5)cc(C#N)cc2n1 [Example 93, (R)-(2-(7-cyano-2-methoxyquinoxalin-5-yl)-4-methyl-7,8-dihydro-[1,4]dioxino[2′,3′:3,4]benzo[1,2-d]thiazol-7-yl)methyl pyridin-3-ylcarbamate]	20
COc1ccc(NC(=O)OC[C@H]2COc3c(cc(C)c4nc(-c5cc(C#N)cc6nc(OC)cnc56)sc34)O2)cn1 [Example 94, (R)-(2-(7-cyano-2-methoxyquinoxalin-5-yl)-4-methyl-7,8-dihydro-[1,4]dioxino[2′,3′:3,4]benzo[1,2-d]thiazol-7-yl)methyl (6-methoxypyridin-3-yl)carbamate]	29
COc1cnc2c(-c3nc4c(C)cc5c(c4s3)OCC(COC(=O)Nc3cccnc3)O5)cc(Cl)cc2n1 (stereo not drawn) [Example 95, (2-(7-chloro-2-methoxyquinoxalin-5-yl)-4-methyl-7,8-dihydro-[1,4]dioxino[2′,3′:3,4]benzo[1,2-d]thiazol-7-yl)methyl pyridin-3-ylcarbamate]	140
COc1cnc2c(-c3nc4c(C)cc5c(c4s3)OCC(COC(=O)Nc3ccc(F)nc3)O5)cc(Cl)cc2n1 (stereo not drawn) [Example 96, (2-(7-chloro-2-methoxyquinoxalin-5-yl)-4-methyl-7,8-dihydro-[1,4]dioxino[2′,3′:3,4]benzo[1,2-d]thiazol-7-yl)methyl (6-fluoropyridin-3-yl)carbamate]	12
COc1cnc2c(-c3nc4c(C)cc5c(c4s3)OCC(COC(=O)Nc3ccc(C)nc3)O5)cc(Cl)cc2n1 (stereo not drawn) [Example 97, (2-(7-chloro-2-methoxyquinoxalin-5-yl)-4-methyl-7,8-dihydro-[1,4]dioxino[2′,3′:3,4]benzo[1,2-d]thiazol-7-yl)methyl (6-methylpyridin-3-yl)carbamate]	64
COc1ccc(NC(=O)OC[C@H]2COc3c(cc(C)c4nc(-c5cc(CO)cc6nc(OC)cnc56)sc34)O2)cn1 [Example 98, (R)-(2-(7-(hydroxymethyl)-2-methoxyquinoxalin-5-yl)-4-methyl-7,8-dihydro-[1,4]dioxino[2′,3′:3,4]benzo[1,2-d]thiazol-7-yl)methyl (6-methoxypyridin-3-yl)carbamate]	1.4
COc1cnc2c(-c3nc4c(C)cc5c(c4s3)OC[C@H](COC(=O)Nc3ccnc(C)c3)O5)cc(CO)cc2n1 [Example 99, (R)-(2-(7-(hydroxymethyl)-2-methoxyquinoxalin-5-yl)-4-methyl-7,8-dihydro-[1,4]dioxino[2′,3′:3,4]benzo[1,2-d]thiazol-7-yl)methyl (2-methylpyridin-4-yl)carbamate]	2
COc1cnc2c(-c3nc4c(C)cc5c(c4s3)OC[C@H](COC(=O)Nc3ccc(C)nc3)O5)cc(CO)cc2n1 [Example 100, (R)-(2-(7-(hydroxymethyl)-2-methoxyquinoxalin-5-yl)-4-methyl-7,8-dihydro-[1,4]dioxino[2′,3′:3,4]benzo[1,2-d]thiazol-7-yl)methyl (6-methylpyridin-3-yl)carbamate]	1.8
COc1cnc2c(-c3nc4c(C)cc5c(c4s3)OC[C@H](COC(=O)Nc3cccnc3)O5)cc(CO)cc2n1 [Example 101, (R)-(2-(7-(hydroxymethyl)-2-methoxyquinoxalin-5-yl)-4-methyl-7,8-dihydro-[1,4]dioxino[2′,3′:3,4]benzo[1,2-d]thiazol-7-yl)methyl pyridin-3-ylcarbamate]	2.8
COc1cnc2c(-c3nc4ccc5c(c4s3)OC[C@H](COC(=O)Nc3ccc(C)nc3)O5)cc(C)cc2n1 [Example 102, (R)-(2-(2-methoxy-7-methylquinoxalin-5-yl)-7,8-dihydro-[1,4]dioxino[2′,3′:3,4]benzo[1,2-d]thiazol-7-yl)methyl (6-methylpyridin-3-yl)carbamate]	2.3
